{"source": "patent US11407825B2", "about": "“NaPi2b-targeted polymer antibody-drug conjugates and methods of use thereof” (Mersana Therapeutics, Inc., priority 2018, dated 2022)", "assay": "Plasma PK profile in patients dosed with XMT-1536", "assay_type": "in vivo, human", "details": "after XMT-1536", "experimental": "The PK profile of the active ingredient of XMT-1536, its release product and selected metabolites are determined for each patient by non-compartmental analysis using standard PK software (e.g., Phoenix WinNonlin). PK parameters per patient include time of maximum observed concentration (tmax), maximum concentration (Cmax), and area under the concentration curve for the last measurable concentration (AUC0-last). When the terminal elimination phase is identified, additional parameters such as elimination half-life, clearance, and volume of distribution are determined.\nThe plasma PK profile for the analytes (total antibody; conjugated drug (AF-HPA); free drug (AF-HPA) and the drug metabolite auristatin F (AF)) was determined in blood samples from 30 patients (3 mg/m^2, n=1; 6 mg/m^2, n=1; 12 mg/m^2, n=7; 20 mg/m^2, n=15; 30 mg/m^2, n=5; 40 mg/m^2, n=1). […] The PK characteristics is consistent with that reported for other approved antibody-drug conjugates or those currently in clinical development.", "note": "Square brackets hold non-standard residues; d marks the D form. Peptide text beside a SMILES is read from it. * marks the point of attachment. Dolaproine = CO[C@@H]([C@@H]1CCCN1)[C@@H](C)C(=O)O; Dil = CC[C@H](C)[C@H](NC)[C@@H](CC(=O)O)OC; NMe2Val = CC(C)[C@@H](C(=O)*)N(C)C; NH(3-hydroxypropyl) = OCCCN*"}
{"compound": "CC[C@H](C)[C@@H]([C@@H](CC(=O)N1CCC[C@H]1[C@H](OC)[C@@H](C)C(=O)N[C@@H](Cc1ccccc1)C(=O)NCCCO)OC)N(C)C(=O)[C@@H](NC(=O)[C@H](C(C)C)N(C)C)C(C)C", "note": "[AF-HPA, Auristatin F-hydroxypropyl amide] (NMe2Val-V[Dil][Dolaproine]F-{NH(3-hydroxypropyl)})", "values": [{"measurement": "accumulation after administration of multiple doses", "result": "no accumulation"}, {"measurement": "systemic exposure compared to that of the conjugated drug", "result": "low systemic expose"}]}
{"compound": "CC[C@H](C)[C@@H]([C@@H](CC(=O)N1CCC[C@H]1[C@H](OC)[C@@H](C)C(=O)N[C@@H](Cc1ccccc1)C(=O)O)OC)N(C)C(=O)[C@@H](NC(=O)[C@H](C(C)C)N(C)C)C(C)C", "note": "[AF, auristatin F] (NMe2Val-V[Dil][Dolaproine]F-OH)", "values": [{"measurement": "accumulation after administration of multiple doses", "result": "no accumulation"}, {"measurement": "systemic exposure compared to that of the conjugated drug", "result": "low systemic expose"}]}
